Results on one compound are retold here after publication PMC12655338, “Reversing the Warburg Effect: YW3-56 Induces Leukemia Differentiation via AKT-Mediated Glucose Metabolic Reprogramming” (Pharmaceuticals, 2025).

Molecules are shown by their SMILES.

This assay addresses T1, PAD4 (Protein arginine deiminase 4) (Homo sapiens, UniProt Q9UM07).
T1 construct: gene PADI4
The experiment in a line: colorimetric PAD4 enzyme assay, citrullination of BAEE. The format is biochemical.

T1 sequence (Q9UM07 whole entry): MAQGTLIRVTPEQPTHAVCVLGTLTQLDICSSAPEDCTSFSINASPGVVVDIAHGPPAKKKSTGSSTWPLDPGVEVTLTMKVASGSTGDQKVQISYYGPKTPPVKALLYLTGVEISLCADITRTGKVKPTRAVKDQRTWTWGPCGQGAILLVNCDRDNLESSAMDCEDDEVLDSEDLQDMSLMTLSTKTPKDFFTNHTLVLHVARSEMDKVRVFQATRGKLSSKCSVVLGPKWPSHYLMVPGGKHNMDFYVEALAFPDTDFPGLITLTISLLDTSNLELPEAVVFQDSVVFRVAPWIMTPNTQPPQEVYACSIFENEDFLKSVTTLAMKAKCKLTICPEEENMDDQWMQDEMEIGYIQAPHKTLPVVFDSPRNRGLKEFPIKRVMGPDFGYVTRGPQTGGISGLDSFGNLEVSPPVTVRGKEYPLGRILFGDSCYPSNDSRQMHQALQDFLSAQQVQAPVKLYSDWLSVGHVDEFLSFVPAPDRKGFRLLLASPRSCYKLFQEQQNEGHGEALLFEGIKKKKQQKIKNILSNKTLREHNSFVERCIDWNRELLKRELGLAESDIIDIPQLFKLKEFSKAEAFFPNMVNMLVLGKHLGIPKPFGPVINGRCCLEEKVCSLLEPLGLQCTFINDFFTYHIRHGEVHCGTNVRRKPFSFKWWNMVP

In the case of `CN(C)c1ccc2cc(C(=O)N[C@@H](CCCNC(=N)CCl)C(=O)NCc3ccccc3)ccc2c1` [YW3-56], the IC50 is 4.1 ± 0.28 µM.

The term IC50 denotes the midpoint of a concentration-inhibition curve. Read a high IC50 as a need for much substance.
